Measured values reported in patent US12129221B2, “Difluoro phenyl amide RIP1 inhibitor” (SIRONAX LTD, priority 2018, dated 2024).

Assays:
PK in monkey = conditions: in vivo
[1] = Hepatocyte stability, rat; format: in vitro ADME; conditions: rat, hepatocytes, read-out: Rat T1/2
From the text: (§1) Representative Metabolic Stability Data II, +, Extrapolated.

[2] = Hepatocyte stability, dog; format: in vitro ADME; conditions: dog, hepatocytes, read-out: Dog T1/2
From the text: as §1

[3] = Liver microsome stability, mini-pig; format: in vitro ADME; parameters: key to mini-pig T1/2 (min): +, Extrapolated; conditions: extrapolated
From the text: Representative Metabolic Stability Data I; +, Extrapolated.

[4] = Hepatocyte stability, mouse; format: in vitro ADME; conditions: mouse, hepatocytes, read-out: Mouse T1/2
From the text: as §1

[5] = Hepatocyte Stability, comparison table

In the case of CCC(C)(C)C(=O)N(O)Cc1cc(F)cc(F)c1 [Compound 13, N-(3,5-difluorobenzyl)-N-hydroxy-2,2-dimethylbutanamide], the AUC(0-inf) (PK in monkey; IV 2 mg/kg) is reported as 1760 ng·h/mL, the clearance (PK in monkey; IV 2 mg/kg) is reported as 19.3 mL/min/kg and the half-life (PK in monkey; IV 2 mg/kg) is reported as 672 min. It also gave a Vd (PK in monkey; IV 2 mg/kg, read-out: Vdss) of 0.93 L/kg, an AUC(0-inf) (PK in monkey; PO 30 mg/kg) of 6930 ng·h/mL and a Cmax (PK in monkey; PO 30 mg/kg) of 3730 ng/mL. The bioavailability (PK in monkey; PO 30 mg/kg) was 26.3%, the half-life (PK in monkey; PO 30 mg/kg) was 90 min and the AUC(0-inf) (PK in monkey; PO 100 mg/kg) was 41600 ng·h/mL. For the same compound, the Cmax (PK in monkey; PO 100 mg/kg) was 10700 ng/mL, the bioavailability (PK in monkey; PO 100 mg/kg) was 47.5% and the half-life (PK in monkey; PO 100 mg/kg) was 106 min. It also gave an AUC(0-inf) (PK in monkey; PO 200 mg/kg) of 87200 ng·h/mL, a Cmax (PK in monkey; PO 200 mg/kg) of 20600 ng/mL and a bioavailability (PK in monkey; PO 200 mg/kg) of 49.5%. It also gave a half-life (PK in monkey; PO 200 mg/kg) of 130 min, a half-life [1, 5] of 28 min and a half-life ([1]; Hepatocyte stability) of 28 min. The half-life [2, 5] was 13 min, the half-life ([2]; Hepatocyte stability) was 12.8 min and the “mini-pig T1/2 (min)” value [3] was “+”. For the same compound, the half-life [4, 5] was 20 min and the half-life ([4]; Hepatocyte stability) was 20.1 min.
